The source of these data is US20240051956A1, “SOS1 INHIBITORS AND USES THEREOF” (QILU REGOR THERAPEUTICS INC., priority 2020, published 2024).

Molecules are shown by their SMILES. Read-outs that look alike come from different tables or passages of the source.

For one data set, the target named is SOS1 and KRAS G12D (Homo sapiens (Human), UniProt Q07889). Nature of the data set: KRAS::SOS1 AlphaScreen Binding Assay. The note with it: SOS1 (564-1049), KRAS G12D (1-169), GDP. An excerpt: a. KRAS::SOS1 AlphaScreen Binding Assay
Low IC50 values of given compounds are indicative of high potency of the SOS1 inhibitor compounds in this assay setting.
• GST-TEV-SOS1 (564-1049) and His-TEV-Avi-KRAS G12D (1-169) are purchased from Viva Biotech (Shanghai) Ltd. • GDP (Sigma, Cat. G7127) • AlphaLISA Glutathione Acceptor Beads (PerkinElmer, Cat. AL109C) • AlphaScreen Streptavidin Donor Beads (PerkinElmer, Cat. 6760002S) • Assay plates: ProxiPlate-384 Plus, White 384-shallow well Microplate (PerkinElmer, Cat. 6008280)
SOS1 inhibitor compounds are diluted to a final start concentration of […]. Serial dilutions of compounds are made using Tecan D300e Digital Dispenser in 9 concentrations with serial 1:3 dilutions. 100 nL of compound solution is transferred to the 384-well assay plate per well, covering a range between 1 μM and 0.15 nM minimum in duplicate. 10 nM (final assay concentration) KRAS G12D, 5 nM (final assay concentration) SOS1 and 10 μM (final assay concentration) GDP are mixed in assay buffer, and 5 μL of KRAS::SOS1 GDP mix is added into the assay plate to the 100 nL of compound solution (final dilution in the assay 1:100, final DMSO concentration 1%). After a 30 min incubation, AlphaLISA Glutathione Acceptor Beads and AlphaScreen Streptavidin Donor Beads are mixed in assay buffer at a concentration of 5 µg/mL (final assay concentration), and 5 μL of bead mix is added into the assay plate. Plates are kept at room temperature in a darkened incubator for 3 h. After a 3 h incubation, the signal is determined using Envision (PerkinElmer). The excitation wavelength is 680 nm, and emission 615 nm. IC50 values are calculated and analyzed using GraphPad Prism.
(In general: In Alpha technology, singlet oxygen from a donor bead excites a nearby acceptor bead.)

Data set [1] can be described thus: Human liver microsomal stability. It is filed as in vitro ADME. The settings on record: for half-life: human liver microsomes, read-out: Human liver microsomal stability, T1/2; for stability in human liver microsomal assay: in words, compound I-18 vs present compounds.
For a further data set, the system named is NCI-H358. As to the kind of experiment: Cell proliferation assay, 3D, CellTiter-Glo 3D. It is filed as cell-based, human. The settings on record: for IC50: Homo sapiens, read-out: anit-prolif. H358 IC50. On the procedure: b. Cell Proliferation Assay
Low IC50 values are indicative of high potency of the compounds in this assay setting.
Cell proliferation assay is performed in three-dimensional (3D) ultra-low conditions with the human cell line NCI-H358, a human non-small cell lung cancer (NSCLC) cell line with a KRAS G12C mutation.
• 96-well Clear Round Bottom Ultra-Low Attachment Microplate (Corning, Cat. 7007) • 96-well Flat Clear Bottom White Polystyrene TC-treated Microplates (Corning, Cat. 3610) • RPMI-1640 Medium (Gibco, Cat. 22400105) • Fetal Bovine Serum (FBS) (Gibco, Cat. 10099141C) • 0.25% Trypsin-EDTA (Gibco, Cat. 25200056) • Penicillin-Streptomycin (Gibco, Cat. 15140122) • CellTiter-Glo 3D Cell Viability Assay (Promega, Cat. G9683)
NCI-H358 cells (ATCC, Cat. CRL-5807) are grown in cell culture flasks using RPMI medium supplemented with 10% FBS. Cells are incubated at 37° C. and 5% C02 in a humidified atmosphere, with sub-cultivation performed twice a week. Cells are trypsinized, counted and plated in 96-well ultra-low adhesion plates for 3D cell viability determination. The day after plating, serial dilutions of SOS1 inhibitor compounds are made using Tecan D300e Digital Dispenser to evaluate a concentration-dependent effect on cell viability. The concentration of the test compounds covers a range between 5 μM and 0.76 nM with serial 1:3 dilutions in 9 concentrations. 0.5 μL serial dilutions of the compounds are added in duplicates. 3 days later, the CellTiter-Glo 3D Cell Viability Assay is used to measure cell viability effects of SOS1 inhibitor compounds in 3D format. Luminescent intensity is determined using Envision (PerkinElmer). Data is analyzed and IC50 values are calculated using GraphPad Prism.
For orientation: ATP-based viability assays read luminescence as a measure of living cells.

Setting [2] is: 72 h, NCI-H358 (KRAS G12C), 3D ultra-low attachment, 3 days.

The term IC50 denotes the concentration that inhibits the measured activity by half.

Chain of SOS1 and KRAS G12D (Q07889 564-1049, stated change not applied): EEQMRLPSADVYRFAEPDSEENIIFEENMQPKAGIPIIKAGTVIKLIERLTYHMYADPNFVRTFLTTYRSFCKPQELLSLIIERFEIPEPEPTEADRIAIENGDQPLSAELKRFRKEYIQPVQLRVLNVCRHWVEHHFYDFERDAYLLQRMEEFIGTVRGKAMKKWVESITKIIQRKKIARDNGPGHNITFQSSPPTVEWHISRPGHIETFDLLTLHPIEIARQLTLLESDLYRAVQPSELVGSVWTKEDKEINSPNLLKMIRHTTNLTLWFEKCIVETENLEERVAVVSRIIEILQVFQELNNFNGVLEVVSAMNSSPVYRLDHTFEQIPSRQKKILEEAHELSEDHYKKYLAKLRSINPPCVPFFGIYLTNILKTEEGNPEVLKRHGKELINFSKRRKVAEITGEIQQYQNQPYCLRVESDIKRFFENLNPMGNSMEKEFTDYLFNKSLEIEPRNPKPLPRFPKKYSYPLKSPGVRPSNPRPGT

In the case of `Cc1nc(N[C@H](C)c2cccc(C(F)F)c2F)c2cn(N3CCOCC3)c(=O)c(-c3ccc(S(C)(=O)=O)cc3)c2n1` [Example 43, 4-[[(1R)-1-[3-(difluoromethyl)-2-fluoro-phenyl]ethyl]amino]-2-methyl-8-(4-methylsulfonylphenyl)-6-morpholino-pyrido[4,3-d]pyrimidin-7-one], the IC50 at SOS1 and KRAS G12D was at most 15 nM; in the data set with NCI-H358 (setting [2]), at most 100 nM; in the data set with NCI-H358 (NCI-H358, H358 cells) it was 53 nM. Also, the half-life in data set [1] was over 16.7 h. In addition, the “stability in human liver microsomal assay” value (“stability” below) in data set [1] is “dramatically improved”.
Taken in the same sequence, the figures for `Cc1nc(N[C@H](C)c2cccc(C(F)F)c2F)c2cn(N3CCOCC3)c(=O)c(F)c2n1` [Example 29, (R)-4-((1-(3-(difluoromethyl)-2-fluorophenyl)ethyl)amino)-8-fluoro-2-methyl-6-morpholinopyrido[4,3-d]pyrimidin-7 (6H)-one] were at most 15 nM, at most 100 nM, 49 nM, 2.33 h and “dramatically improved”.
Take `Cc1nc(N[C@H](C)c2cccc(C(F)(F)F)c2C)c2cn(N3CCOCC3)c(=O)c(F)c2n1` [Example 30]: the IC50 was at most 15 nM on SOS1 and KRAS G12D; at most 100 nM in the data set with NCI-H358 (setting [2]); 28 nM in the data set on NCI-H358 (NCI-H358, H358 cells). Further, in data set [1], the half-life was determined as 3.17 h. Further, the “stability” value in data set [1] is “dramatically improved”.
Turning to `Cc1nc(N[C@H](C)c2cccc(C(F)F)c2F)c2cn(N3CCOCC3)c(=O)cc2n1` [Example 1, 4-[[(1R)-1-[3-(difluoromethyl)-2-fluoro-phenyl]ethyl]amino]-2-methyl-6-morpholino-pyrido[4,3-d]pyrimidin-7-one], the half-inhibitory concentration (IC50) on SOS1 and KRAS G12D was at most 15 nM; in the data set on NCI-H358 (setting [2]), at most 100 nM; in the data set on NCI-H358 (NCI-H358, H358 cells) it was 40 nM. Further, the half-life in data set [1] came to 1.4 h. In data set [1], the “stability” value was “dramatically improved”.
Taken in the same sequence, the figures for `Cc1nc(N[C@H](C)c2cccc(C(F)F)c2F)c2cn(N3CCOCC3)c(=O)c(-c3ccc(S(C)(=O)=O)nc3)c2n1` [Example 61] were at most 15 nM, at most 100 nM, 31 nM, over 16.7 h and “dramatically improved”.
Regarding `Cc1nc(N[C@H](C)c2cccc(C(F)F)c2F)c2cn(N3CCOCC3)c(=O)c(-c3ccccc3)c2n1` [Example 47], the half-inhibitory concentration (IC50) on SOS1 and KRAS G12D was at most 15 nM; in the data set with NCI-H358 (setting [2]) it was 100 to 500 nM.
As for `Cc1nc(N[C@H](C)c2cccc(C(F)(F)CO)c2)c2cn(N3CCOCC3)c(=O)cc2n1` [Example 18], the IC50 was at most 15 nM on SOS1 and KRAS G12D; 500 to 1000 nM with NCI-H358 (setting [2]).
Regarding `Cc1nc(N[C@H](C)c2cccc(C(F)(F)F)c2F)c2cn(N3CCOCC3)c(=O)c(F)c2n1` [Example 31], the IC50 at SOS1 and KRAS G12D is at most 15 nM; in the data set with NCI-H358 (setting [2]), at most 100 nM.
On the same counts, the results for `Cc1nc(N[C@H](C)c2cccc(C(F)F)c2F)c2cn(N3CCNCC3)c(=O)cc2n1` [Example 10, 4-[[(1R)-1-[3-(difluoromethyl)-2-fluoro-phenyl]ethyl]amino]-2-methyl-6-piperazin-1-yl-pyrido[4,3-d]pyrimidin-7-one] are at most 15 nM and over 1000 nM.
On the same counts, the results for `Cc1nc(NC(C)c2cccc(C(F)F)c2)c2cn(N3CCOCC3)c(=O)cc2n1` (stereo not drawn) [Example 25] are 15 to 150 nM and 100 to 500 nM.
`Cc1nc(N[C@H](C)c2cccc(C(F)F)c2F)c2cn(N3CCOCC3)c(=O)c(-c3cnn(CCO)c3)c2n1` [Example 53]: the IC50 at SOS1 and KRAS G12D is at most 15 nM; with NCI-H358 (setting [2]), at most 100 nM; with NCI-H358 (NCI-H358, H358 cells), 60 nM. For the same molecule, the half-life in data set [1] stood at 0.733 h. The “stability” value in data set [1] is reported as “dramatically improved”.
On the same counts, the results for `Cc1nc(N[C@H](C)c2cccc(C(F)(F)F)c2C)c2cn(N3CCOCC3)c(=O)cc2n1` [Example 17, (R)-2-methyl-4-((1-(2-methyl-3-(trifluoromethyl)phenyl)ethyl)amino)-6-morpholinopyrido[4,3-d]pyrimidin-7(6H)-one] are at most 15 nM, at most 100 nM, 23 nM, 1.83 h and “dramatically improved”.
For `Cc1nc(N[C@H](C)c2cccc(C(F)F)c2F)c2cn(N3CC4(COC4)C3)c(=O)cc2n1` [Example 9], the IC50 on SOS1 and KRAS G12D is at most 15 nM; in the data set with NCI-H358 (setting [2]), 100 to 500 nM.
On the same counts, the results for `Cc1nc(N[C@H](C)c2cccc(C(F)F)c2F)c2cn(N3CCOCC3)c(=O)c(C#N)c2n1` [Example 41, 4-[[(1R)-1-[3-(difluoromethyl)-2-fluoro-phenyl]ethyl]amino]-2-methyl-6-morpholino-7-oxo-pyrido[4,3-d]pyrimidine-8-carbonitrile] are 15 to 150 nM and 100 to 500 nM.
On the same counts, the results for `Cc1nc(N[C@H](C)c2cccc(C(F)F)c2F)c2cn(N3CCOCC3)c(=O)c(-c3ccc(P(C)(C)=O)nc3)c2n1` [Example 71] are at most 15 nM and 100 to 500 nM.
On the same counts, the results for `Cc1nc(N[C@H](C)c2cccc(C(F)(F)F)c2)c2cn(N3CCOCC3)c(=O)cc2n1` [Example 20] are at most 15 nM and at most 100 nM.
Turning to `Cc1nc(N[C@H](C)c2cccc(C(F)F)c2F)c2cn(N3CCOCC3)c(=O)c(-c3ccc(=O)[nH]c3)c2n1` [Example 49], the IC50 at SOS1 and KRAS G12D was at most 15 nM; in the data set on NCI-H358 (setting [2]) it was 500 to 1000 nM.
On the same counts, the results for `Cc1nc(N[C@H](C)c2cccc(C(F)F)c2F)c2cn(N3CCOCC3)c(=O)c(-c3cnc(C#N)c(F)c3)c2n1` [Example 67] are 15 to 150 nM and at most 100 nM.
On the same counts, the results for `Cc1nc(N[C@H](C)c2cccc(C(F)F)c2F)c2cn(N3CCOCC3)c(=O)c(-c3ccc4nncn4c3)c2n1` [Example 72] are at most 15 nM and 100 to 500 nM.
With `Cc1nc(N[C@H](C)c2cccc(C(F)F)c2F)c2cn(C3CCOCC3)c(=O)cc2n1` [Example I-18, reference compound], in data set [1], the half-life was found to be 0.05 h and the “stability” value is listed as “very poor stability”. Further, in the data set with NCI-H358 (NCI-H358, H358 cells), the IC50 turned out to be 164 nM. Further, the “activity in H358 cellular assay” value with NCI-H358 (in words, compound I-18 vs present compounds) is “weaker activity”.
